Assay results published in US11058702B2 (EMEK, Inc., priority 2014, dated 2021).

Key:
[1] = system: locally advanced rectal cancer; conditions: cited from earlier work
[2] = system: IPdR oxidase activity of human intestine cytosol
[3] = target: T1, human liver IPdR-aldehyde oxidase (Homo sapiens, UniProt Q06278); conditions: low concentrations
T1 sequence (Q06278 1-1338): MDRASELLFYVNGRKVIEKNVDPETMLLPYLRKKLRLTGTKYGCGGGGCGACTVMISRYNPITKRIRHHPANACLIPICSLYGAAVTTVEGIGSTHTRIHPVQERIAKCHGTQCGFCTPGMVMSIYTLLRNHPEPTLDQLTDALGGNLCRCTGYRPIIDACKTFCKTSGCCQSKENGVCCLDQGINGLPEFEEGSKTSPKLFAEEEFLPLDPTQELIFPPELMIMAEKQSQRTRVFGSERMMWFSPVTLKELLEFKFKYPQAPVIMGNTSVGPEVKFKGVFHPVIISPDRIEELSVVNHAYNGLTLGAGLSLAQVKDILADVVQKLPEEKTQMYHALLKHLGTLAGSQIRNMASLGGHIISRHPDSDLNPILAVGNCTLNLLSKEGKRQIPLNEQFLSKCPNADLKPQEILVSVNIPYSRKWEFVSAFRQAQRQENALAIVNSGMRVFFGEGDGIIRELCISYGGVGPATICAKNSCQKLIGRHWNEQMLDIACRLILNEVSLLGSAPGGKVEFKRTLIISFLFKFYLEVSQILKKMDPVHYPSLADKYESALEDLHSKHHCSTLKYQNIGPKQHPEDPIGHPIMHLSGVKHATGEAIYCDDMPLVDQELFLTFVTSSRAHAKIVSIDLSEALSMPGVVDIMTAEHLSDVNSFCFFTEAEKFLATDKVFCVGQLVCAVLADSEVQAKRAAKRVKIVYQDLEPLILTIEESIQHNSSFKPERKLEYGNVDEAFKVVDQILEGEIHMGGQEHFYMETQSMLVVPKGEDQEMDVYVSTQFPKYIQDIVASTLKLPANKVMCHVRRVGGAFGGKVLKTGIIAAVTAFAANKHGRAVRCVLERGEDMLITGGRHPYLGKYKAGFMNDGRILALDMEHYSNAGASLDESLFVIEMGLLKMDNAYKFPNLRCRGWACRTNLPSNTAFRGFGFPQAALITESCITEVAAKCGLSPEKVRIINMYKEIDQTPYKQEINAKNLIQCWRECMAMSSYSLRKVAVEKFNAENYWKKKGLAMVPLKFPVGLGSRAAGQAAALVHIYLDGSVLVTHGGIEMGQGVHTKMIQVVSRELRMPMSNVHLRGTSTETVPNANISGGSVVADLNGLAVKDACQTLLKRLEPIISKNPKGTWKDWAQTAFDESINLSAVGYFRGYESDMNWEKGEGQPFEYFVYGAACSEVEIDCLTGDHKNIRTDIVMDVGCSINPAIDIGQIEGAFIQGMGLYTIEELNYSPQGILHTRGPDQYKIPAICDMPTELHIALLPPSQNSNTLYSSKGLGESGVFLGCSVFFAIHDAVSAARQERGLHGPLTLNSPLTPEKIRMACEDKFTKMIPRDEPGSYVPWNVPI

head & neck cancers = conditions: cis-platin+definitive RT, cCR achieved; cited from earlier work

Row | Compound | effect on human small intestine IPdR oxidase activity [2] | effect on human liver IPdR-aldehyde oxidase [3] | other results
1 | O=C1[O][Pt]2([NH][C@@H]3CCCC[C@H]3[NH]2)[O]C1=O [oxaliplatin] | – | – | effect on pCR rate when added during pre-operative RT+FP ([1]; with increased normal tissue complications): without any improvement in pCR rate
2 | COc1ccc(C=O)cc1O [isovanillin] | not inhibited | inhibited | –
3 | CC1=CC(=O)c2ccccc2C1=O [menadione] | stimulated | – | –
4 | CCCCCOC(=O)Nc1nc(=O)n([C@@H]2O[C@H](C)[C@@H](O)[C@H]2O)cc1F [capecitabine] | – | – | pCR rate ([1]; neoadjuvant capecitabine+RT, Stage III rectal patients): 10-15%
5 | N.N.[Cl][Pt][Cl] [cis-platin, cis-diamminedichloroplatinum II] | – | – | cure rate (head & neck cancers): approximately 60%
6 | Oc1ncnc2[nH]ncc12 [allopurinol] | not inhibited | not | –
